Where “and” joins values, the source holds several entries; their conditions need not be identical. Equal values may be shown once. Entries after “also recorded” stand apart in the source; their conditions may differ.
Columns and labels:
Type in all cases: in vivo, Mus musculus
[1] = test system: HepG2 tumor; test: Example 1: tumor volume, tumor weight and TGI in HepG2 tumor bearing humanized mice
Protocol: (§1) Each group contains five mice. The human hepatocellular carcinoma cell line HepG2 were subcutaneously inoculated to the advanced immune deficiency mice. Total of 30 mice were included in this study.
2.2. […] The subcutaneous injection volume was […].
(§2) 3.1. […] The injection was performed using insulin syringe with the dosage of 10 mg/kg (Dosage of injection was changed to 20 mg/kg from Day 15) and injection volume of 10 mL/kg. […] The reference item was administered for G1. The procedure followed the standards of sample administration.
(§3) 3.2. The test item anti-hPD-L1 antibody or reference items were intraperitoneally injected to the mice on Day 8 after the inoculation of tumor cells. The injection was performed using insulin syringe with the dosage of 10 mg/kg (Dosage of injection was changed to 20 mg/kg from Day 15) and injection volume of 10 mL/kg. The test item anti-hPD-L1 was continuously administered on Day 8, 11, 15, 18, 22, 25, 29 and 32 for G4 and G6. The reference item was administered for G1. The procedure followed the standards of sample administration.
(§4) 3.3. […] The injection was performed using insulin syringe with the dosage of 1 mg/kg and injection volume of 5 mL/kg. […] The reference item was administered for G1. The procedure followed the standards of sample administration.
The measurement was performed from the next day of the inoculation. The tumor volumes were measured and recorded twice a week (Mon., Thur.). Tumor volume was calculated by ellipsoid equation according to the records ((major axis×minor axis×minor axis)×(π/6)).
Tumor volumes were used to calculate tumor growth inhibition (TGI) rates according to the following formula: TGI (%)=[1−(Ti−T0)/(Ci−C0)]×100, where Ti and Ci indicate the mean tumor volume in the treatment groups and vehicle group at the end of the experiment (Day 35). Whereas, T0 and C0 indicate the mean tumor volumes in the treatment group and vehicle group at the beginning of the experiment (Day 1).
(§5) Mice were sacrificed by CO2 euthanasia at the end of the study duration, and the connective tissue around tumor was resected. The tumor samples were then removed and weighed. The half tissue was fixed in 10% formaldehyde and then embedded in paraffin; the other half was prepared for the isolation of tumor-infiltrating lymphocytes (TILs).

[2] = Example 1: body weight and mortality of HepG2 tumor bearing humanized mice; conditions: OBI-3424 1 mg/kg IV, antibody 10 mg/kg IP (20 from Day 15)
Protocol: as §1, §2, §3, §4
The measurement was performed from the next day of the inoculation. The animal body weights were measured and recorded twice per week.

[3] = test system: CD8^+ cytotoxic T cells (CTL) in tumor-infiltrating lymphocytes; test: Example 1: flow cytometry, percentage of CTL cells in TILs
Protocol: as §5
(§6) The half of mouse tumors were dissected into smaller fragments using scalpels and then digested with a cocktail of collagenase, DNase I, and Hyaluronidase (Collagenase #C5138, DNase I #D5025, Hyaluronidase #H6254, SigmaAldrich) for at least 2 hours.
(§7) Cells were stained with the fluorescently conjugated surface antibodies and incubated for 30 minutes at 4° C., and then resuspended in staining buffer for flow cytometric analysis. Flow cytometry was done using a Navios EX Flow Cytometer (Beckman Coulter). Data were analyzed using the Kaluza Analysis Software (Beckman Coulter).

[4] = test system: CD4^+ T helper cells in tumor-infiltrating lymphocytes; test: Example 1: flow cytometry, percentage of TH cells in TILs; conditions: individual mice
Protocol: as §5, §6, §7

[5] = test system: NK cells in tumor-infiltrating lymphocytes; test: Example 1: flow cytometry, percentage of NK cells in TILs; conditions: individual mice
Protocol: as §5, §6, §7

[6] = test system: PD-L1^+ cells in tumor-infiltrating lymphocytes; test: Example 1: flow cytometry, percentage of PD-L1 cells in TILs; conditions: individual animal
Protocol: as §5, §6, §7

[7] = TILs, flow cytometer, individual mice
[8] = TILs, gate CD45^+CD8^+ cells, individual mice

For `C[C@H](OP(=O)(N1CC1)N1CC1)c1ccc([N+](=O)[O-])c(Oc2cccc(C(=O)N(C)C)c2)c1` [OBI-3424, (S)-1-(3-(3-N,N-dimethylaminocarbonyl)phenoxyl-4-mtrophenyl)-1-ethyl-N,N′-bis(ethylene)phosphoramidate], the “Tumor volume, Mean” value ([1]; D 1, group mean, OBI-3424 1 mg/kg IV, antibody 10 mg/kg IP (20 from Day 15)) was 397.08 mm^3, the “Tumor volume, Mean” value ([1]; D 4, group mean, OBI-3424 1 mg/kg IV, antibody 10 mg/kg IP (20 from Day 15)) was 295.20 mm^3 and the “Tumor volume, Mean” value ([1]; D 7, group mean, OBI-3424 1 mg/kg IV, antibody 10 mg/kg IP (20 from Day 15)) was 298.28 mm^3. The “Tumor volume, Mean” value ([1]; D 11, group mean, OBI-3424 1 mg/kg IV, antibody 10 mg/kg IP (20 from Day 15)) was 344.17 mm^3, the “Tumor volume, Mean” value ([1]; D 14, group mean, OBI-3424 1 mg/kg IV, antibody 10 mg/kg IP (20 from Day 15)) was 385.09 mm^3 and the “Tumor volume, Mean” value ([1]; D 18, group mean, OBI-3424 1 mg/kg IV, antibody 10 mg/kg IP (20 from Day 15)) was 535.36 mm^3. The “Tumor volume, Mean” value ([1]; D 21, group mean, OBI-3424 1 mg/kg IV, antibody 10 mg/kg IP (20 from Day 15)) was 627.45 mm^3, the “Tumor volume, Mean” value ([1]; D 25, group mean, OBI-3424 1 mg/kg IV, antibody 10 mg/kg IP (20 from Day 15)) was 773.19 mm^3 and the “Tumor volume, Mean” value ([1]; D 28, group mean, OBI-3424 1 mg/kg IV, antibody 10 mg/kg IP (20 from Day 15)) was 718.91 mm^3. For the same molecule, the “Tumor volume, Mean” value ([1]; D 32, group mean, OBI-3424 1 mg/kg IV, antibody 10 mg/kg IP (20 from Day 15)) was 643.09 mm^3, the “Tumor volume, Mean” value ([1]; D 35, group mean (mean±SEM), OBI-3424 1 mg/kg IV, antibody 10 mg/kg IP (20 from Day 15)) was 590.62±164.32 mm^3 and 590.62 mm^3 and the “Tumor weight, Mean” value ([1]; D 35, group mean, OBI-3424 1 mg/kg IV, antibody 10 mg/kg IP (20 from Day 15)) was 274.44 mg. The “mean tumor volume compared with vehicle (in words)” value ([1]; Day 35, vs vehicle (G1), Student's t-test) was “Significantly reduced; also recorded: significantly suppressed”, the “effect on tumor growth (conclusion in words)” value ([1]; HepG2 humanized mouse model) was “efficiently anti-tumor effect” and the TGI ([1]; from mean tumor volumes Day 35 vs Day 1, relative to vehicle, OBI-3424 1 mg/kg IV, antibody 10 mg/kg IP (20 from Day 15)) was 83.13%. The “tumor weight compared with vehicle (in words)” value ([1]; sacrifice Day 36, vs vehicle (G1)) was “significantly suppressed”, the “Body Weight, Mean” value ([2]; Day 18, group mean) was 24.23 g and the “Body Weight, Mean” value ([2]; Day 21, group mean) was 24.04 g. The “CD8^+ cytotoxic T cells (CTL) population in tumors compared with vehicle (in words)” value ([3]; Example 1, TILs at sacrifice, flow cytometry) was “significantly elevated”, the “CD25^+ CTL cells (CD45^+CD8^+ CD25^+) Total %” value [3, 7] was 0.27% and 0.30% and 0.77% and 0.52% and 0.28% and the “CTL cells (CD45^+CD8^+) Total %” value [3, 7] was 20.93% and 12.12% and 21.14% and 45.53% and 36.08%. For the same molecule, the “PD-1^+ CTL cells (CD45^+CD8^+ PD-1^+) Total %” value [3, 7] was 21.41% and 12.30% and 20.63% and 41.26% and 28.90%, the “CTL cells (CD45^+CD8^+) CD45^+ Gated %” value ([3]; TILs, gate CD45^+ cells, individual mice) was 49.08% and 66.81% and 72.14% and 74.09% and 57.70% and the “CD25^+ CTL cells (CD45^+CD8^+ CD25^+) CTL Gated %” value [3, 8] was 1.27% and 2.48% and 3.64% and 1.13% and 0.78%. The “PD-1^+ CTL cells (CD45^+CD8^+ PD-1^+) CTL Gated %” value [3, 8] was 92.13% and 91.25% and 99.25% and 91.79% and 85.06%, the “CD25^+ CTL cells (CD45^+CD8^+ CD25^+) Cell count” value ([3]; TILs, individual mice) was 0.12 ×10^5 and 0.22 ×10^5 and 0.63 ×10^5 and 0.13 ×10^5 and 0.11 ×10^5 and the “CTL cells (CD45^+CD8^+) Cell count” value ([3]; TILs, individual mice) was 9.13 ×10^5 and 8.93 ×10^5 and 17.29 ×10^5 and 11.11 ×10^5 and 14.65 ×10^5. For the same molecule, the “PD-1^+ CTL cells (CD45^+CD8^+ PD-1^+) Cell count” value ([3]; TILs, individual mice) was 9.33 ×10^5 and 9.07 ×10^5 and 16.88 ×10^5 and 10.07 ×10^5 and 11.73 ×10^5, the “CD25^+ TH cells (CD45^+CD4^+ CD25^+) Total %” value ([4]; flow cytometer) was 1.06% and 0.68% and 0.82% and 0.52% and 0.53% and the “PD-1^+ TH cells (CD45^+CD4^+ PD-1^+) Total %” value ([4]; flow cytometer) was 19.45% and 9.29% and 13.77% and 15.00% and 16.75%. For the same molecule, the “TH cells (CD45^+CD4^+) Total %” value ([4]; flow cytometer) was 18.53% and 9.14% and 14.30% and 14.34% and 16.81%, the “TH cells (CD45^+CD4^+) CD45^+ Gated %” value ([4]; gate CD45^+ cells) was 43.45% and 50.36% and 48.78% and 23.33% and 26.88% and the “CD25^+ TH cells (CD45^+CD4^+CD25^+) TH Gated %” value ([4]; gate CD45^+CD4^+ cells) was 5.70% and 7.39% and 5.74% and 3.63% and 3.15%. The “PD-1^+ TH cells (CD45^+CD4^+ PD-1^+) TH Gated %” value ([4]; gate CD45^+CD4^+ cells) was 99.46% and 98.15% and 99.75% and 97.06% and 97.78%, the “CD25^+ TH cells (CD45^+CD4^+ CD25^+) Cell count” value [4] was 0.46 ×10^5 and 0.50 ×10^5 and 0.67 ×10^5 and 0.13 ×10^5 and 0.22 ×10^5 and the “PD-1^+ TH cells (CD45^+CD4^+ PD-1^+) Cell count” value [4] was 8.48 ×10^5 and 6.85 ×10^5 and 11.26 ×10^5 and 3.66 ×10^5 and 6.80 ×10^5. For the same molecule, the “TH cells (CD45^+CD4^+) Cell count” value [4] was 8.08 ×10^5 and 6.74 ×10^5 and 11.70 ×10^5 and 3.50 ×10^5 and 6.82 ×10^5, the “CD16^+ NK cells (CD45^+CD56^+ CD16^+) Total %” value ([5]; flow cytometer) was 0.39% and 0.21% (2×) and 0.24% and 0.17% and the “NK cells (CD45^+CD56^+) Total %” value ([5]; flow cytometer) was 2.47% and 1.62% and 1.15% and 2.73% and 1.39%. The “PD-1^+ NK cells (CD45^+CD56^+PD-1^+) Total %” value ([5]; flow cytometer) was 3.26% and 1.51% and 1.63% and 2.76% and 2.38%, the “NK cells (CD45^+CD56^+) CD45^+ Gated %” value ([5]; gate CD45^+ cells) was 6.06% and 9.96% and 4.16% and 5.20% and 2.33% and the “CD16^+ NK cells (CD45^+CD56^+ CD16^+) NK Gated %” value ([5]; gate CD45^+CD56^+ cells) was 15.62% and 12.65% and 20.43% and 7.71% and 11.87%. The “PD-1^+ NK cells (CD45^+CD56^+PD-1^+) NK Gated %” value ([5]; gate CD45^+CD56^+ cells) was 88.81% and 88.82% and 97.60% and 90.05% and 83.33%, the “CD16^+ NK cells (CD45^+CD56^+ CD16^+) Cell count” value [5] was 0.17 ×10^5 and 0.15 ×10^5 and 0.20 ×10^5 and 0.05 ×10^5 and 0.07 ×10^5 and the “NK cells (CD45^+CD56^+) Cell count” value [5] was 1.08 ×10^5 and 1.19 ×10^5 and 0.94 ×10^5 and 0.67 ×10^5 and 0.56 ×10^5. The “PD-1^+ NK cells (CD45^+CD56^+PD-1^+) Cell count” value [5] was 1.42 ×10^5 and 1.11 ×10^5 and 1.33 ×10^5 and 0.67 ×10^5 and 0.97 ×10^5, the “CD45^+ cells Cell count (×10^6)” value [6] was 1.86 ×10^6 and 1.34 ×10^6 and 2.40 ×10^6 and 1.50 ×10^6 and 2.54 ×10^6 and the “CD45^+ cells Gated %” value [6] was 58.88% and 28.16% and 40.69% and 79.75% and 79.11%. For the same molecule, the “CD45^+ cells Total %” value [6] was 42.64% and 18.14% and 29.31% and 61.46% and 62.53%, the “Total PD-L1^+ cells (PD-L1^+) Cell count (×10^5)” value [6] was 2.17 ×10^5 and 14.22 ×10^5 and 4.16 ×10^5 and 0.26 ×10^5 and 0.25 ×10^5 and the “Total PD-L1^+ cells (PD-L1^+), Total %” value [6] was 4.97% and 19.30% and 5.09% and 1.08% and 0.62%. The “Total PD-L1^+ cells (PD-L1^+), Total cells Gated %” value [6] was 5.67% and 24.15% and 6.02% and 1.15% and 0.65%, the “Total cells Cell count (×10^6)” value [6] was 3.82 ×10^6 and 5.89 ×10^6 and 6.92 ×10^6 and 2.30 ×10^6 and 3.83 ×10^6 and the “Total cells Gated %” value [6] was 87.63% and 79.89% and 84.57% and 94.06% and 94.44%. The “Total cells Total %” value [6] was 87.63% and 79.89% and 84.57% and 94.06% and 94.44%.

From patent US20240216401A1, “COMBINATION THERAPY BY USING AKR1C3-ACTIVATED COMPOUND WITH IMMUNE CHECKPOINT INHIBITOR” (OBI Pharma, Inc., priority 2021, published 2024)
